Measured values taken from patent US20240174693A1, “SOMATOSTATIN RECEPTOR SUBTYPE 4 (SSTR4) AGONISTS AND THEIR APPLICATIONS” (Humanwell Pharmaceutical US, priority 2022, published 2024).
Values belong to the molecule of their own block, whether it stands above or below them.

Key:
RBC partitioning study = format: in vitro ADME; conditions: rat
Procedure: 0.05 M sodium phosphate buffer, pH 7.4 was prepared using the following steps. Stock A, stock B, and stock C solutions were prepared by adding 156 g of monobasic sodium phosphate in 1 L of Milli-Q water (1.0 M), 142 g of dibasic sodium phosphate in 1 L of Milli-Q water (1.0 M), and 58.5 g of sodium chloride in 1 L of Milli-Q water (1.0 M) respectively. 20.25 mL of Stock B and 4.75 mL of Stock A were added to 35 mL of Stock C and the total volume was brought to near 500 mL with Milli-Q water. The resulting buffer solution was titrated with NaOH or H3PO4 to pH 7.4 and the total volume was brought to 500 mL. The 0.05 M sodium phosphate buffer was preheated at 37° C.
Fresh blank plasma preparation and hematocrit determination. A tube containing whole blood was centrifuged at 4000 rpm for 10 minuts. The plasma was harvested was stored. Hematocrit (the volume of red blood cells to the total volume of whole blood) was determined using the formula:
Hematocrit=Vred cells/Vblood=(Vblood−Vplasma)/Vblood
Vblood: the volume of whole blood applied
Vplasma: the volume of plasma measured after centrifugation
Preparation of reference and test compound spiking solutions in plasma. 1.25 mM spiking solution A was prepared by adding add 10 μL of 10 mM reference into 70 μL of plasma (8-fold dilution).
Preparation of reference and test compound in whole blood and plasma. For whole blood samples, 12 μL of spiking solution B (prepared above) was added to 288 μL of whole blood (25-fold dilution). For plasma samples, 6 μL of spiking solution B was added to 144 μL of plasma (25-fold dilution). The assay procedure used is as follows. The assay plate was placed in an incubator at 37° C. for 60 minutess. 300 μL of compound spiking solution in whole blood from above was removed and centrifuged at 4000 rpm for 10 minutes. Subsequently plasma was harvested. 50 μL of plasma sample was removed and 150 μL of acetonitrile (containing IS) was added and vortexed for 5 min. The sample was centrifuged at 6000 rpm for 15 minutes. The supernatant was removed and analyzed by LC/MS.

Hepatocyte stability = conditions: rat, hepatocytes
in vitro = conditions: rat, hepatocytes
SSTR4 = biological target: T1, SSTR4 (Homo sapiens, UniProt P31391); experiment: FLIPR assay for agonists, HEK293/Gα15/SSTR4 cells; format: cell-based; conditions: read-out: SSTR4 Agonist Activity in FLIPR Assay EC50
T1 construct: host or cells: HEK293/Gα15/SSTR4
T1 sequence (P31391 whole entry): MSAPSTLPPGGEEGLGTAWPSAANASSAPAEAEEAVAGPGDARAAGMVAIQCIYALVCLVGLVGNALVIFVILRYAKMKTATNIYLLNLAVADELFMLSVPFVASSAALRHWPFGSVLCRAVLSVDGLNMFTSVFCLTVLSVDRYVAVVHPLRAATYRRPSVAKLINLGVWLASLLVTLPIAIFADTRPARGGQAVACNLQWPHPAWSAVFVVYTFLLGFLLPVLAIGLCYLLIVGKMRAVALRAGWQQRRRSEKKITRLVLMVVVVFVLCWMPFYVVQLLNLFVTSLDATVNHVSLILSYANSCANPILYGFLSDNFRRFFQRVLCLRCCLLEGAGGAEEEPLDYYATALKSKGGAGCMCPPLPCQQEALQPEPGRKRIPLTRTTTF

SD rats [1] = experiment: SD rat carrageenan acute inflammation model; format: in vivo; conditions: for Changes in Foot Swelling Rate (Mean ± SEM) / Foot Swelling Degrees (Mean ± SEM): SD rat carrageenan
Procedure: Using an electronic caliper for accuracy, the thickness of the rat's footpad was measured. Rats were then restrained, and 100 μl of 1% carrageenan was subcutaneously injected into the right hind footpad to induce inflammation, thereby establishing an acute inflammation model using carrageenan. Each compound was administered in advance according to the respective dosing time points. The swelling of the rat's foot was measured at various time points: before modeling (0 h) and after modeling (2, 4, 7 h). A comparison was made between footpad swelling before and after modeling. […] The results of the carrageenan-induced acute inflammation model experiment are depicted in FIG. 1.

SD rats [2] = experiment: SD rat chronic constriction injury (CCI) model; format: in vivo; conditions: mechanical pain threshold 1, 2, 4 h post-administration, compound 8 single subcutaneous injection
From the text: This model involves the use of a non-absorbable 5-0 suture to loosely ligate the sciatic nerve, causing slight compression of its outer sheath. Mechanical compression by the suture induces axonal damage, leading to abnormal discharge. Additionally, the local stimulation from the ligature induces the release of inflammatory mediators.
Furthermore, CCI selectively damages the larger myelinated fibers of the sciatic nerve while preserving most of the unmyelinated C fibers responsible for transmitting pain.
After initial screening, rats are sequentially numbered and randomly assigned to groups based on the numbering, using a random grouping method. Experimental groups are established based on trial conditions.

[3] = Chemical stability in buffer; format: physicochemical; conditions: PBS(Ph 7.4) 10 um, 37° C.; read-out: Chemical Stability T½
Procedure: 1 mM test compound spiking solution (spiking solution A) was prepared by adding 10 μL of 10 mM a test compound stock solution to 90 μL of DMSO. 396 μL of buffer were added into tubes designated for different time points. The samples were pre-warmed at 37° C. for 10 minutes. 4 μL of spiking solution A was added into the wells containing 396 μL of buffer that were designated as 0 min, 15 min, 45 min, or 60 min. The timer was started after the addition of the spiking solution. At each time point, 1200 μL of acetonitrile (ACN) containing an internal standard was added to the tubes. The samples were centrifuged at 10,000 rpm for 5 minutes and 100 μL of the supernatant was removed and analyzed by for LC-MS/MS analysis.

hERG potassium channel = hERG potassium channel (Homo sapiens, UniProt Q12809); experiment: in vitro; conditions: hERG Current Inhibition Rate (%) Mean
Sequence of hERG potassium channel (Q12809 whole entry): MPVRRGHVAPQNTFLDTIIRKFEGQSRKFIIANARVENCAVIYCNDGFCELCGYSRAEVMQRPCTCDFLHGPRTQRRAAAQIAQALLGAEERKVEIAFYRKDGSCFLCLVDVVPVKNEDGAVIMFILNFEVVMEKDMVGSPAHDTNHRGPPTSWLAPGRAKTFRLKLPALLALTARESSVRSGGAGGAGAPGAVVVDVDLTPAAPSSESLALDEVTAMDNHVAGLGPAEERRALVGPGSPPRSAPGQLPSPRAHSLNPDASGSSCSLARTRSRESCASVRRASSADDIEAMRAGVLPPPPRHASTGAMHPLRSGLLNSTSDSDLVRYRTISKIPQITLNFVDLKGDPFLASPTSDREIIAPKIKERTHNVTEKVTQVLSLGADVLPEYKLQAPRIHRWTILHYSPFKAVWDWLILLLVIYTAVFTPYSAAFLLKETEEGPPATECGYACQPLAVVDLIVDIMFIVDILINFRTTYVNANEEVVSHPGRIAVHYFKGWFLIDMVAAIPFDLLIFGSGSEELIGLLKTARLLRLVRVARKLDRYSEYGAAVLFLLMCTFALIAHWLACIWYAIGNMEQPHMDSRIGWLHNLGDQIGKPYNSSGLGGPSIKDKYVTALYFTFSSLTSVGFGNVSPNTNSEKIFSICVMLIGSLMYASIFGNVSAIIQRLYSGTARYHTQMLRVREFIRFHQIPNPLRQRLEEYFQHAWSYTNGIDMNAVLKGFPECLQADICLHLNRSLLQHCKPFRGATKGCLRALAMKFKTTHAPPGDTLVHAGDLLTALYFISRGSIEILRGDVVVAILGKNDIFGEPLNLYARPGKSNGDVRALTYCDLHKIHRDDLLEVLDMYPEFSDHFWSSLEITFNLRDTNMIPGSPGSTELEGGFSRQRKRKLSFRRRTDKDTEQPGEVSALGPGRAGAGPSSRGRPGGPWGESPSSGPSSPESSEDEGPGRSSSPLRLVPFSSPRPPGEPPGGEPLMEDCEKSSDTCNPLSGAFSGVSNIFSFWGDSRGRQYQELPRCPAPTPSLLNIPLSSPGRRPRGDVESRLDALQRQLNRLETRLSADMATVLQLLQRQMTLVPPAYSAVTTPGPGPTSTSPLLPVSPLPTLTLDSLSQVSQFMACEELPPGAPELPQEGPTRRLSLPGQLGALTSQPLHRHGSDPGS

RBC Partitioning Study KBlood/PL (RBC partitioning study): 1.05
RBC Partitioning Study KRBC/PL (RBC partitioning study): 1.09
CLint scaled at 1 μM (Hepatocyte stability): 3.17 mL/min/kg
half-life at 1 μM (Hepatocyte stability): 17.1 h
Structure (SMILES): CC(C)(NC(=O)[C@H]1[C@@H]2CNC[C@H]1C2)c1nc(C2CC2)c2ccccn12 [Compound 9, (1R,5S,6r)-N-(2-(1-cyclopropylimidazo[1,5-a]pyridin-3-yl)propan-2-yl)-3-azabicyclo[3.1.1]heptane-6-carboxamide]

Structure (SMILES): CC(C)(NC(=O)[C@H]1[C@@H]2CNC[C@H]1C2)c1ncc2c(Cl)cccn12 [Compound 7, (1R,5S,6r)-N-(2-(8-chloroimidazo[1,5-a]pyridin-3-yl)propan-2-yl)-3-azabicyclo[3.1.1]heptane-6-carboxamide]
RBC Partitioning Study KRBC/PL (RBC partitioning study): 1.15
CLint scaled at 1 μM (in vitro): 5.4 mL/min/kg
half-life at 1 μM (in vitro): 10 h

Structure (SMILES): CC(C)(NC(=O)[C@H]1[C@@H]2CNC[C@H]1C2)c1ncc2c(Br)cccn12 [Compound 8, (1R,5S,6r)-N-(2-(8-bromoimidazo[1,5-a]pyridin-3-yl)propan-2-yl)-3-azabicyclo[3.1.1]heptane-6-carboxamide]
EC50 (SSTR4): 3.33 nM
Changes in Foot Swelling Rate (Mean ± SEM) (SD rats [1]; 0 h (before modeling)): 0%
Foot Swelling Degrees (Mean ± SEM) (SD rats [1]; 0 h (before modeling)): 4.02 ± 0.09 mm
Changes in Foot Swelling Rate (Mean ± SEM) (SD rats [1]; 2 h after modeling): 36.28 ± 5.75%
Foot Swelling Degrees (Mean ± SEM) (SD rats [1]; 2 h after modeling): 5.51 ± 0.13 mm
Changes in Foot Swelling Rate (Mean ± SEM) (SD rats [1]; 4 h after modeling): 42.25 ± 2.63%
Foot Swelling Degrees (Mean ± SEM) (SD rats [1]; 4 h after modeling): 5.78 ± 0.05 mm
Changes in Foot Swelling Rate (Mean ± SEM) (SD rats [1]; 7 h after modeling): 34.30 ± 4.17%
Foot Swelling Degrees (Mean ± SEM) (SD rats [1]; 7 h after modeling): 5.44 ± 0.11 mm
Anti-inflammatory effect in carrageenan model (SD rats [1]; single subcutaneous injection of 30 mg/kg, SD rats): demonstrated anti-inflammatory tendencies
Effect on neuropathic pain in CCI model (SD rats [2]): significantly affected the SD rat CCI model
half-life at 10 μM [3]: 81.3 h
RBC Partitioning Study KRBC/PL (RBC partitioning study): 0.94
CLint scaled at 1 μM (in vitro): 6.01 mL/min/kg
half-life at 1 μM (in vitro): 9 h
inhibition at 0.3 µM (hERG potassium channel): -3.49%
inhibition at 1 µM (hERG potassium channel): -3.67%
inhibition at 3 µM (hERG potassium channel): -2.44%
inhibition at 10 µM (hERG potassium channel): -1.66%
inhibition at 30 µM (hERG potassium channel): -0.15%
